Data: patent US6358981B1, “Sulphonamide derivatives” (Eli Lilly and Company, priority 1998, dated 2002)

How the values were obtained:
human GluR4B receptor = biological target: T1, human GluR4B receptor (Homo sapiens, UniProt P48058); assay: potentiation of agonist-induced excitability of human GluR4B receptor expressed in HEK 293 cells; type: cell-based
T1 construct: expressed in transfected cells
Excerpt: The ability of compounds of formula I to potentiate glutamate receptor-mediated response may be determined using fluorescent calcium indicator dyes (Molecular Probes, Eugene, Oreg., Fluo-3) and by measuring glutamate-evoked efflux of calcium into GluR4 transfected HEK293 cells, as described in more detail below.
In one test, 96 well plates containing confluent monolayers of HEK cells stably expressing human GluR4B (obtained as described in European Patent Application Publication Number EP-A1-583917) are prepared. The tissue culture medium in the wells is then discarded, and the wells are each washed once with 200 μl of buffer (glucose, 10 mM, sodium chloride, 138 mM, magnesium chloride, 1 mM, potassium chloride, 5 mM, calcium chloride, 5 mM, N-[2-hydroxyethyl]-piperazine-N-[2-ethanesulfonic acid], 10 mM, to pH 7.1 to 7.3). […]
Each test is then performed as follows. […] A second fluorescent reading is taken after 5 minutes incubation. 15 μl of 400 μM glutamate solution is then added to each well (final glutamate concentration 100 μM), and a third reading is taken. The activities of test compounds and cyclothiazide solutions are determined by subtracting the second from the third reading (fluorescence due to addition of glutamate in the presence or absence of test compound or cyclothiazide) and are expressed relative to enhance fluorescence produced by 100 μM cyclothiazide.

T1 sequence (P48058 21-902): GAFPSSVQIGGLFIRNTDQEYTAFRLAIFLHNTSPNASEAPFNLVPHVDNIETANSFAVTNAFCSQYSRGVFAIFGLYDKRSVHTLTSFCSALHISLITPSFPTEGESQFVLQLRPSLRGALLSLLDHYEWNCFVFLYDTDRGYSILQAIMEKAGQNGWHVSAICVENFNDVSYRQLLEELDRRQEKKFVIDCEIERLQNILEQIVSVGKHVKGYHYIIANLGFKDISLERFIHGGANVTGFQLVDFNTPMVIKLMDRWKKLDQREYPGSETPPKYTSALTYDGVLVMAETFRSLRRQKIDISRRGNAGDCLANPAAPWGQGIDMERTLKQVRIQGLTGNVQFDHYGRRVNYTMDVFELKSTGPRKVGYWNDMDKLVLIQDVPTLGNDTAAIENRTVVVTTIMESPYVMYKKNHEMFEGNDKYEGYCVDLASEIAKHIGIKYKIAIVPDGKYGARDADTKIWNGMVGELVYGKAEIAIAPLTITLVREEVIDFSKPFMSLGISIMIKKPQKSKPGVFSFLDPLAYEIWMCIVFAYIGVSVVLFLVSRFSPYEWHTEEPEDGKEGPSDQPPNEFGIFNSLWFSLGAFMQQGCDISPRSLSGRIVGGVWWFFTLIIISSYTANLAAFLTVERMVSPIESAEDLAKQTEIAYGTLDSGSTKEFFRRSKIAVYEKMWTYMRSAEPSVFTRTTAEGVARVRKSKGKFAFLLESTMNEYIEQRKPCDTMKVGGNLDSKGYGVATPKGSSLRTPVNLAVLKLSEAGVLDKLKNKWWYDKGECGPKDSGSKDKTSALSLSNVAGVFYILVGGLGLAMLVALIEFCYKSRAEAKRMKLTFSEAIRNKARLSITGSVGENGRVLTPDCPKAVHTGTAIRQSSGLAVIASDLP

| SMILES | melting point [°C] | potentiation of agonist-induced excitability (human GluR4B receptor) |
| --- | --- | --- |
| CC(C)S(=O)(=O)NCC(F)c1ccc(-c2ccccc2)cc1 (centres unmarked) | 89 to 91 |  |
| NS(=O)(=O)c1cc2c(cc1Cl)NC(C1CC3C=CC1C3)NS2(=O)=O (centres unmarked) [cyclothiazide] |  | potentiate agonist-induced excitability |
